Test results taken from ChEMBL document CHEMBL5500393, “Discovery and Optimization of Novel SaFabI Inhibitors as Specific Therapeutic Agents for MRSA Infection” (J Med Chem, 2024).
Values after ≈ are worked out from the molar mass of the structure shown. Active and inactive are the calls of the source. The rule behind the calls is not given here.

Legend:
[1] = molecular target: T1, Enoyl-[acyl-carrier-protein] reductase [NADPH] FabI (Staphylococcus aureus, UniProt Q6GI75); assay: Inhibition of N-terminal his 6 tagged Staphylococcus aureus Fabi (1 to […] residues) expressed in Escherichia coli BL21 incubated for 30 mins in presence of NADPH by fluorescence based microplate reader analysis
T1 sequence (Q6GI75 whole entry): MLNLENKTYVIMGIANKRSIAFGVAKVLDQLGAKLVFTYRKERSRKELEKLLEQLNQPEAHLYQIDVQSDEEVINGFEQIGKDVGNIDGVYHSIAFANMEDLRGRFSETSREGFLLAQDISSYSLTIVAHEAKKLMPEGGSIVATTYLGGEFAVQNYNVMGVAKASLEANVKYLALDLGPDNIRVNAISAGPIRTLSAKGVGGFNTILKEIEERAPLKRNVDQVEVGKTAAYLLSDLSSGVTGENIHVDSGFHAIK

Staphylococcus aureus [2] = assay: Antimicrobial activity against […] Staphylococcus aureus ATCC43300 measured after 24 hrs by CLSI protocol based microdilution method; format: functional
Staphylococcus aureus [3] = assay: Bactericidal activity against […] Staphylococcus aureus ATCC33591 assessed as reduction in bacterial count at 4 times MIC measured within 24 hrs by time-kill assay; format: functional, organism-based
Cell membrane = assay: Induction of cell membrane damage in methicillin-resistant Staphylococcus aureus ATCC33591 assessed as outflow of cytoplasmic content at 1 times MIC measured after 30 mins by TEM analysis; format: cell membranes
[4] = Acute toxicity in female BALB/c mouse assessed as abnormal behaviour at 800 mg/kg, po measured after 14 days; format: organism-based; conditions: in vivo, 336 h, time 14 day
[5] = Drug concentration in BALB/c mouse plasma at 1200 mg/kg, po measured after 1 hr by LC-MS analysis; format: ADME, organism-based
[6] = Half life in female Sprague-Dawley rat at 5 mg/kg, iv measured upto 24 hrs by LC-MS analysis; format: ADME, organism-based; conditions: in vivo
[7] = Tmax in female Sprague-Dawley rat at 20 mg/kg, po measured upto 24 hrs by LC-MS analysis; format: ADME, organism-based; conditions: in vivo
Staphylococcus aureus [8] = assay: In vivo antibacterial activity against methicilin-resistant Staphylococcus aureus ATCC33591 infected in BALB/c mouse skin infection model assessed as effect on body weight loss at 5 to 20 mg/kg administered daily for 4 days; format: functional, organism-based; conditions: dose 5-20 mg/kg, time 4.0 day
Staphylococcus aureus [9] = assay: In vivo antibacterial activity against methicilin-resistant Staphylococcus aureus ATCC33591 infected in BALB/c mouse skin infection model assessed as adverse effect at 5 to 20 mg/kg administered daily for 4 days; format: functional, organism-based; conditions: dose 5-20 mg/kg, time 4.0 day
Staphylococcus aureus [10] = assay: In vivo antibacterial activity against methicilin-resistant Staphylococcus aureus ATCC33591 infected in BALB/c mouse skin infection model assessed as decrease in lesion size at 5 mg/kg administered daily for 4 days (reference value: 43.4 mm2); format: functional; conditions: time 4 day
Staphylococcus aureus [11] = assay: In vivo antibacterial activity against methicilin-resistant Staphylococcus aureus ATCC33591 infected in BALB/c mouse skin infection model assessed as decrease in lesion size at 10 mg/kg administered daily for 4 days (reference value: 43.4 mm2); format: functional; conditions: time 4 day
Staphylococcus aureus [12] = assay: In vivo antibacterial activity against methicilin-resistant Staphylococcus aureus ATCC33591 infected in BALB/c mouse skin infection model assessed as decrease in lesion size at 20 mg/kg administered daily for 4 days (reference value: 43.4 mm2); format: functional; conditions: time 4 day
Staphylococcus aureus [13] = assay: In vivo antibacterial activity against methicilin-resistant Staphylococcus aureus ATCC33591 infected in BALB/c mouse skin infection model assessed as reduction in bacterial load administered daily for 4 days; format: functional, organism-based; conditions: dose 5-20 mg/kg, time 4.0 day
Staphylococcus aureus [14] = assay: In vivo antibacterial activity against methicilin-resistant Staphylococcus aureus ATCC33591 infected in BALB/c mouse skin infection model assessed as reduction in bacterial load at 5 mg/kg administered daily for 4 days; format: functional; conditions: time 4 day
Staphylococcus aureus [15] = assay: In vivo antibacterial activity against methicilin-resistant Staphylococcus aureus ATCC33591 infected in BALB/c mouse skin infection model assessed as reduction in bacterial load at 10 mg/kg administered daily for 4 days; format: functional; conditions: time 4 day
Staphylococcus aureus [16] = assay: In vivo antibacterial activity against methicilin-resistant Staphylococcus aureus ATCC33591 infected in BALB/c mouse skin infection model assessed as reduction in bacterial load at 20 mg/kg administered daily for 4 days; format: functional; conditions: time 4 day
Staphylococcus aureus [17] = assay: In vivo antibacterial activity against methicilin-resistant Staphylococcus aureus ATCC33591 infected in BALB/c mouse skin infection model assessed as reduction in area of injury at 20 mg/kg administered daily for 4 days by H and E staining based analysis; format: functional, organism-based; conditions: time 4.0 day
Staphylococcus aureus [18] = assay: In vivo antibacterial activity against methicilin-resistant Staphylococcus aureus ATCC33591 infected in BALB/c mouse skin infection model assessed as reduction in number of inflammatory cells at 20 mg/kg administered daily for 4 days by H and E staining based analysis; format: functional, organism-based; conditions: time 4.0 day
Staphylococcus aureus [19] = assay: In vivo antibacterial activity against methicilin-resistant Staphylococcus aureus ATCC33591 infected in BALB/c mouse skin infection model assessed as restoration of cell morphology at 20 mg/kg administered daily for 4 days by H and E staining based analysis; format: functional, organism-based; conditions: time 4.0 day
[20] = molecular target: T2, Enoyl-[acyl-carrier-protein] reductase [NADPH] FabI (Staphylococcus aureus) (UniProt Q6GI75); assay: Binding affinity to N-terminal his 6 tagged Staphylococcus aureus Fabi (1 to […] residues) expressed in Escherichia coli BL21 assessed as change in melting temperature at 80 uM incubated for 20 mins in presence of NADPH by differential scanning fluorescence assay
T2 sequence (whole entry): T1 sequence (Q6GI75 whole entry)

Staphylococcus aureus [21] = assay: In vivo antibacterial activity against methicilin-resistant Staphylococcus aureus ATCC33591 infected in BALB/c mouse skin infection model assessed as reduction in skin lesions at 10 mg/kg administered daily for 4 days (reference value: 51.6 mm2); format: functional; conditions: time 4 day
Staphylococcus aureus [22] = assay: In vivo antibacterial activity against methicilin-resistant Staphylococcus aureus ATCC33591 infected in BALB/c mouse skin infection model assessed as log reduction in bacterial count at 10 mg/kg administered daily for 4 days; format: functional; conditions: time 4 day
Staphylococcus aureus [23] = assay: In vivo antibacterial activity against methicilin-resistant Staphylococcus aureus ATCC33591 infected in BALB/c mouse skin infection model assessed as alleviation of skin lesions at 10 mg/kg administered daily for 4 days by H and E staining based analysis; format: functional, organism-based; conditions: time 4.0 day
Staphylococcus aureus [24] = assay: In vivo antibacterial activity against methicilin-resistant Staphylococcus aureus ATCC33591 infected in BALB/c mouse skin infection model assessed as damaged tissue at 10 mg/kg administered daily for 4 days by H and E staining based analysis; format: functional, organism-based; conditions: time 4.0 day
Staphylococcus aureus [25] = assay: In vivo antibacterial activity against methicilin-resistant Staphylococcus aureus ATCC33591 infected in BALB/c mouse skin infection model assessed as as appearance of inflammatory cell infiltrates at 10 mg/kg administered daily for 4 days by H and E staining based analysis; format: functional, organism-based; conditions: time 4.0 day

Cc1c(Br)cccc1N1CC(c2nc3ccccc3n2C)CC1=O (centres undefined)
IC50 [1]: 174 nM
MIC (Staphylococcus aureus [2]): 1 µg/mL (≈ 2.6 µM)
Activity (Staphylococcus aureus [3]): Below limit of detection
Activity (Cell membrane): Active
Activity [4]: Non-Toxic
concentration at 1 h [5]: 72.1 µg/mL
t1/2 [6]: 1.1 h
Tmax [7]: 60 min
Activity (Staphylococcus aureus [8]): inactive
Activity (Staphylococcus aureus [9]): inactive
Activity (Staphylococcus aureus [10]): 31.1 mm2
Activity (Staphylococcus aureus [11]): 20.9 mm2
Activity (Staphylococcus aureus [12]): 13 mm2
Activity (Staphylococcus aureus [13]): Dose-Dependent Effect
log(activity) (Staphylococcus aureus [14]): -1.8
log(activity) (Staphylococcus aureus [15]): -4.5
log(activity) (Staphylococcus aureus [16]): -6.2
Activity (Staphylococcus aureus [17]): Active
Activity (Staphylococcus aureus [18]): Active
Activity (Staphylococcus aureus [19]): Active
ΔTm [20]: 11.8 °C
Activity (Staphylococcus aureus [21]): 27.5 mm2
log(activity) (Staphylococcus aureus [22]): 4.9
Activity (Staphylococcus aureus [23]): Active
Activity (Staphylococcus aureus [24]): Active
Activity (Staphylococcus aureus [25]): Active

COc1c(Br)cccc1N1CC(c2nc3ccccc3n2C)CC1=O (centres undefined)
IC50 [1]: 199 nM
MIC (Staphylococcus aureus [2]): 2 µg/mL (≈ 5 µM)
Activity (Staphylococcus aureus [3]): Below limit of detection
Activity (Cell membrane): Active
Activity [4]: Non-Toxic
concentration at 1 h [5]: 46.5 µg/mL
t1/2 [6]: 1.1 h
Tmax [7]: 30 min
